# Data published in patent publication US20250333419A1, “BICYCLIC COMPOUNDS AS INHIBITORS OF WRN” (Incyte Corporation, priority 2023, published 2025).
# Key:
# WRN [1] = biological target: T1, WRN (Homo sapiens, UniProt Q14191); experiment: WRN ATPase activity assay (ADP-Glo); type: biochemical; settings: IC50, 1-hr pre-incubation with enzyme; geometric means of at least 2 independent replicates
# T1 construct: A His-tagged construct of WRN (AA S2-S1235) was produced and used for the ATPase assay; His; made in house; host or cells: Sf9 insect cells (baculovirus)
# T1 sequence (Q14191 2-1235): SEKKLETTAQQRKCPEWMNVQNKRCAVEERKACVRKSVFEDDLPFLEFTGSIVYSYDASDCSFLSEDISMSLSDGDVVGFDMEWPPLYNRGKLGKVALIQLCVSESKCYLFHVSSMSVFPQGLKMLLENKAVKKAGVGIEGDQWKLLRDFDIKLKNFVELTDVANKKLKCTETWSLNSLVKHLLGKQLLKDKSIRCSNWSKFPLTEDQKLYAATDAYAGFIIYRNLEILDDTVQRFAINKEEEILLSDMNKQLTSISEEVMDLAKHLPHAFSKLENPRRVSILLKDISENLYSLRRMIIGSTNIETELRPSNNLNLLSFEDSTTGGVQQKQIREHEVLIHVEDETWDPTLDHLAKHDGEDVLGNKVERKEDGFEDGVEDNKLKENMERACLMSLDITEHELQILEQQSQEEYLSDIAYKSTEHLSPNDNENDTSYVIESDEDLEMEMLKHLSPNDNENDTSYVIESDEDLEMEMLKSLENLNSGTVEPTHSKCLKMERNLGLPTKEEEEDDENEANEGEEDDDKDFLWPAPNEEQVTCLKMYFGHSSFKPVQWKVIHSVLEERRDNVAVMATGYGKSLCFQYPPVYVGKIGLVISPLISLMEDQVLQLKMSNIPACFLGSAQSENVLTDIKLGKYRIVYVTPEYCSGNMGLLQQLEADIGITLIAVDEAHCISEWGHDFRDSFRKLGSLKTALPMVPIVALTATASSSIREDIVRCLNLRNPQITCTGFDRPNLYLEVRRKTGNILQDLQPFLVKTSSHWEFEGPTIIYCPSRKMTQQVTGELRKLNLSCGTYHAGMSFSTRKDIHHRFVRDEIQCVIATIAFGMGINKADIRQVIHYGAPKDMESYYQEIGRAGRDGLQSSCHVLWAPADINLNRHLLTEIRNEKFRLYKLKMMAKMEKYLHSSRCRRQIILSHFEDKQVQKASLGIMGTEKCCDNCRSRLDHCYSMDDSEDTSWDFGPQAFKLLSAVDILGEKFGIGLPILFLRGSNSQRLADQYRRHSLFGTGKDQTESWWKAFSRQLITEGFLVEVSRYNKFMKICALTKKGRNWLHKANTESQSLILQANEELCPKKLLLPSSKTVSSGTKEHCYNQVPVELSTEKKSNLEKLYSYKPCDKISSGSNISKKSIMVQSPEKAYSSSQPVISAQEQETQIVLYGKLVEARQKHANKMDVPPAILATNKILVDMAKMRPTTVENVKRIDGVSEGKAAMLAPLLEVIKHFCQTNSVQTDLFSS
# Description: Compounds of the Examples were tested for WRN ATPase activity. WRN ATPase activity catalyzes ATP hydrolysis to produce ADP and phosphate. DNA encoding the target protein, 6×HIS-TEV-WRN-517-945, was produced, cloned and transfected as detailed in Example D. The amount of ADP produced was measured using ADP-Glo™ Kinase Assay kit from Promega Corporation in a Greiner white regular volume 384 wells assay plate (Greiner #781075). Data was normalized to a standard curve generated using various ADP concentrations and the corresponding luminescent signal intensities at each concentration. The assay conditions were optimized for enzyme concentration (WRN), substrate concentrations (ATP & dsDNA), and the linearity of the ATPase reaction, in the following assay buffer: 50 mM Tris-HCl, pH-7.5, 2 mM MgCl2, 50 mM NaCl, 1 mM EGTA, 0.01% P-20, 0.05% BSA, and 2 mM DTT prepared with nuclease free water.
# A serial dilution (1:3 scheme) of the compounds were prepared in neat DMSO, with 100 nL of the compounds dispensed in the 384 wells assay plate. An 1-hr pre-incubation of the compounds with enzyme was included. A His-tagged construct of WRN (AA S2-S1235) was produced and used for the ATPase assay. Maximum inhibition control wells were set up with the addition of only assay buffer, and no inhibition control wells were set up with neat DMSO without test compounds. The reaction was initiated by addition of 5 μL substrate mix (200 μM ultrapure ATP, and 50 nM dsDNA prepared in assay buffer) and incubated at 25° C. for 35 min. A forked dsDNA oligomer substrate was prepared by annealing equal amounts of oligo GPat-1 ([BHQ2][…]) and oligo GPat-2 ([…][TAM]) and was used as dsDNA substrate for WRN ATPase assay. A typical ATPase reaction consists of 25 nM forked dsDNA, 100 μM ATP, and 1 nM WRN prepared in assay buffer. The WRN ATPase reaction was stopped by the addition of 5 μL of ADP-Glo Reagent from ADP-Glo™ Kinase Assay kit and incubated for 40 min to deplete the unreacted ATP. Afterwards, 5 μL of Kinase Detection Reagent from the ADP-Glo™ Kinase Assay kit was added and incubated for 1 hr for the development of luminescence signal.
# Luminesce signals were measured on BMG PHERAstar FSX using luminescence protocol. Data analysis was carried out using Genedata software following % of control normalization. Fitting parameters include dose response IC50, Hill slope (n), maximum inhibition (S∞), and minimum inhibition (S0). The reported IC50 values for compounds in this invention are the geometric means of at least 2 independent replicates.
# WRN [2] = biological target: T1, WRN; experiment: WRN Helicase activity assay (fluorescence DNA unwinding); type: biochemical; settings: IC50, 1-hr pre-incubation with enzyme; geometric means of at least 2 independent replicates
# Description: Compounds of the examples were tested for WRN helicase activity. DNA encoding the target protein, 6×HIS-TEV-WRN-517-945, was produced, cloned and transfected as detailed in Example D. To determine the inhibitory properties of the compounds, a 384 wells plate-based Helicase assay was set up to measure the extent of DNA unwinding (Helicase) activity of WRN. The WRN Helicase assay was designed to measure increase in fluorescence signal using a fluorescence based, donor-quencher paired forked dsDNA oligomer substrate (custom synthesis from Sigma-Aldrich) prepared by annealing equal amounts of oligo GPat-1 ([BHQ2][…]) and oligo GPat-2 ([…][TAM]). Continuous measurement of fluorescent signal was used to optimize the buffer conditions, concentration of enzyme (WRN), concentration of substrates (ATP & dsDNA), and the linearity of the Helicase reaction. All solutions were prepared in the following assay buffer: 50 mM Tris-HCl, pH-7.5, 2 mM MgCl2, 50 mM NaCl, 1 mM EGTA, 0.01% P-20, 0.05% BSA, and 2 mM DTT prepared with nuclease free water.
# A serial dilution (1:3 scheme) of the compounds was prepared in neat DMSO and 100 nL of the compounds was dispensed in the Greiner black low volume (Greiner #784076) 384 wells assay plate. An 1-hr pre-incubation of the compounds with enzyme was included. A His-tagged construct of WRN (AA S2-S1235) was produced and used for the ATPase assay. Maximum inhibition control wells were set up with the addition of only assay buffer, and no inhibition control wells were set up with neat DMSO without test compounds. The reaction was initiated by addition of 5 μL substrate mix (200 μM ultrapure ATP, and 50 nM dsDNA prepared in assay buffer) and incubated at 25° C. for 35 min. A typical Helicase reaction consists of 25 nM forked dsDNA, 100 μM ATP, and 1 nM WRN prepared in assay buffer. The WRN Helicase reaction was quenched by the addition of 5 μL ‘STOP’ solution containing 100 mM EDTA (final EDTA concentration 33.33 mM) prepared in assay buffer. The plates were read on BMG PHERAstar FSX using 540/590 module to measure an increase of fluorescence. Data analysis was carried out using the Genedata software following % of control normalization. Fitting parameters include dose response IC50, Hill slope (n), maximum inhibition (S∞), and minimum inhibition (S0). The reported IC50 values for compounds in this invention are the geometric means of at least 2 independent replicates.
SMILES,IC50 (WRN [1]),IC50 (WRN [2])
"CCc1c(-c2ccccc2NC(=O)/C(C#N)=C\C(C)C)c(=O)n2nc(C3=CCOCC3)nc2n1CC(=O)Nc1ccc(C(F)(F)F)cc1 (single isomer, unassigned) [Example 4, (Z)-2-Cyano-N-(2-(2-(3,6-dihydro-2H-pyran-4-yl)-5-ethyl-7-oxo-4-(2-oxo-2-((4-(trifluoromethyl)phenyl)amino)ethyl)-4,7-dihydro-[1,2,4]triazolo[1,5-a]pyrimidin-6-yl)phenyl)-4-methylpent-2-enamide]",500 to 1000 nM,500 to 1000 nM
"CCc1c(-c2ccccc2NC(=O)/C(C#N)=C/C(C)C)c(=O)n2nc(C3=CCOCC3)nc2n1CC(=O)Nc1ccc(C(F)(F)F)cc1 (single isomer, unassigned) [Example 5, (E)-2-Cyano-N-(2-(2-(3,6-dihydro-2H-pyran-4-yl)-5-ethyl-7-oxo-4-(2-oxo-2-((4-(trifluoromethyl)phenyl)amino)ethyl)-4,7-dihydro-[1,2,4]triazolo[1,5-a]pyrimidin-6-yl)phenyl)-4-methylpent-2-enamide]",< 100 nM,< 100 nM
"C=CS(=O)(=O)Nc1ccccc1-c1c(CC)n(CC(=O)Nc2ccc(C(F)(F)F)cc2)c2nc(C3=CCOCC3)nn2c1=O [Example 2, 2-(2-(3,6-Dihydro-2H-pyran-4-yl)-5-ethyl-7-oxo-6-(2-(vinylsulfonamido)phenyl)-[1,2,4]triazolo[1,5-a]pyrimidin-4(7H)-yl)-N-(4-(trifluoromethyl)phenyl)acetamide]",< 100 nM,< 100 nM
"CCOC(=O)/C=C/C(=O)Nc1ccccc1-c1c(CC)n(CC(=O)Nc2ccc(C(F)(F)F)cc2)c2nc(C3=CCOCC3)nn2c1=O [Example 3, Ethyl (E)-4-((2-(2-(3,6-dihydro-2H-pyran-4-yl)-5-ethyl-7-oxo-4-(2-oxo-2-((4-(trifluoromethyl)phenyl)amino)ethyl)-4,7-dihydro-[1,2,4]triazolo[1,5-a]pyrimidin-6-yl)phenyl)amino)-4-oxobut-2-enoate]",500 to 1000 nM,1000 to 2000 nM
"C=CC(=O)N(C)c1ccccc1-c1c(CC)n(CC(=O)Nc2ccc(C(F)(F)F)cc2)c2nc(C3=CCOCC3)nn2c1=O [Example 6, N-(2-(2-(3,6-Dihydro-2H-pyran-4-yl)-5-ethyl-7-oxo-4-(2-oxo-2-((4-(trifluoromethyl)phenyl)amino)ethyl)-4,7-dihydro-[1,2,4]triazolo[1,5-a]pyrimidin-6-yl)phenyl)-N-methylacrylamide]",< 100 nM,100 to 500 nM
"C=CC(=O)Nc1c(C)cccc1-c1c(CC)n(CC(=O)Nc2ccc(C(F)(F)F)cc2)c2nc(C3=CCOCC3)nn2c1=O [Example 7, N-(2-(2-(3,6-Dihydro-2H-pyran-4-yl)-5-ethyl-7-oxo-4-(2-oxo-2-((4-(trifluoromethyl)phenyl)amino)ethyl)-4,7-dihydro-[1,2,4]triazolo[1,5-a]pyrimidin-6-yl)-6-methylphenyl)acryl amide]",100 to 500 nM,500 to 1000 nM
"C=CC(=O)Nc1cc(C)ccc1-c1c(CC)n(CC(=O)Nc2ccc(C(F)(F)F)cc2)c2nc(C3=CCOCC3)nn2c1=O [Example 8, N-(2-(2-(3,6-Dihydro-2H-pyran-4-yl)-5-ethyl-7-oxo-4-(2-oxo-2-((4-(trifluoromethyl)phenyl)amino)ethyl)-4,7-dihydro-[1,2,4]triazolo[1,5-a]pyrimidin-6-yl)-5-methylphenyl)acryl amide]",< 100 nM,< 100 nM
"C=CC(=O)Nc1ccc(C)cc1-c1c(CC)n(CC(=O)Nc2ccc(C(F)(F)F)cc2)c2nc(C3=CCOCC3)nn2c1=O [Example 9, N-(2-(2-(3,6-Dihydro-2H-pyran-4-yl)-5-ethyl-7-oxo-4-(2-oxo-2-((4-(trifluoromethyl)phenyl)amino)ethyl)-4,7-dihydro-[1,2,4]triazolo[1,5-a]pyrimidin-6-yl)-4-methylphenyl)acryl amide]",500 to 1000 nM,500 to 1000 nM
"C=CC(=O)Nc1cc(Cl)ccc1-c1c(CC)n(CC(=O)Nc2ccc(C(F)(F)F)cc2)c2nc(C3=CCOCC3)nn2c1=O [Example 10, N-(5-Chloro-2-(2-(3,6-dihydro-2H-pyran-4-yl)-5-ethyl-7-oxo-4-(2-oxo-2-((4-(trifluoromethyl)phenyl)amino)ethyl)-4,7-dihydro-[1,2,4]triazolo[1,5-a]pyrimidin-6-yl)phenyl)acrylamide]",< 100 nM,< 100 nM
"C=CC(=O)Nc1ccc(Cl)cc1-c1c(CC)n(CC(=O)Nc2ccc(C(F)(F)F)cc2)c2nc(C3=CCOCC3)nn2c1=O [Example 11, N-(4-Chloro-2-(2-(3,6-dihydro-2H-pyran-4-yl)-5-ethyl-7-oxo-4-(2-oxo-2-((4-(trifluoromethyl)phenyl)amino)ethyl)-4,7-dihydro-[1,2,4]triazolo[1,5-a]pyrimidin-6-yl)phenyl)acrylamide]",500 to 1000 nM,500 to 1000 nM
"C=CC(=O)Nc1cc(C(F)(F)F)ccc1-c1c(CC)n(CC(=O)Nc2ccc(C(F)(F)F)cc2)c2nc(C3=CCOCC3)nn2c1=O [Example 12, N-(2-(2-(3,6-Dihydro-2H-pyran-4-yl)-5-ethyl-7-oxo-4-(2-oxo-2-((4-(trifluoromethyl)phenyl)amino)ethyl)-4,7-dihydro-[1,2,4]triazolo[1,5-a]pyrimidin-6-yl)-5-(trifluoromethyl)phenyl)acrylamide]",< 100 nM,< 100 nM
"C=CC(=O)Nc1cc(F)ccc1-c1c(CC)n(CC(=O)Nc2ccc(C(F)(F)F)cc2)c2nc(C3=CCOCC3)nn2c1=O [Example 13, N-(2-(2-(3,6-Dihydro-2H-pyran-4-yl)-5-ethyl-7-oxo-4-(2-oxo-2-((4-(trifluoromethyl)phenyl)amino)ethyl)-4,7-dihydro-[1,2,4]triazolo[1,5-a]pyrimidin-6-yl)-5-fluorophenyl)acryl amide]",< 100 nM,< 100 nM
"C=CC(=O)N1CCCC=C1c1c(CC)n(CC(=O)Nc2ccc(C(F)(F)F)cc2)c2nc(C3=CCOCC3)nn2c1=O [Example 14, 2-(6-(1-Acryloyl-1,4,5,6-tetrahydropyridin-2-yl)-2-(3,6-dihydro-2H-pyran-4-yl)-5-ethyl-7-oxo-[1,2,4]triazolo[1,5-a]pyrimidin-4(7H)-yl)-N-(4-(trifluoromethyl)phenyl)acetamide]",< 100 nM,< 100 nM
"C=CC(=O)N1CCc2cccc(-c3c(CC)n(CC(=O)Nc4ccc(C(F)(F)F)cc4)c4nc(C5=CCOCC5)nn4c3=O)c21 [Example 15, 2-(6-(1-Acryloylindolin-7-yl)-2-(3,6-dihydro-2H-pyran-4-yl)-5-ethyl-7-oxo-[1,2,4]triazolo[1,5-a]pyrimidin-4(7H)-yl)-N-(4-(trifluoromethyl)phenyl)acetamide]",< 100 nM,< 100 nM
